Source: patent US8563714B2, “Bridged spiro [2.4] heptane derivatives as ALX receptor and/or FPRL2 agonists” (Actelion Pharmaceuticals Ltd., priority 2009, dated 2013)

Tests used:
human ALX receptor = molecular target: T1, human ALX receptor (Homo sapiens, UniProt P25090); assay: Intracellular calcium measurements (FLIPR), agonistic activity in HEK293-hALXR-Gα16 cells; type: cell-based; settings: Fluo-4 calcium FLIPR, normalized to WKYMVm 10 nM
T1 construct: expressed in transfected cells; host or cells: HEK293 (HEK293-hALXR-Gα16)
T1 sequence (P25090 1-351): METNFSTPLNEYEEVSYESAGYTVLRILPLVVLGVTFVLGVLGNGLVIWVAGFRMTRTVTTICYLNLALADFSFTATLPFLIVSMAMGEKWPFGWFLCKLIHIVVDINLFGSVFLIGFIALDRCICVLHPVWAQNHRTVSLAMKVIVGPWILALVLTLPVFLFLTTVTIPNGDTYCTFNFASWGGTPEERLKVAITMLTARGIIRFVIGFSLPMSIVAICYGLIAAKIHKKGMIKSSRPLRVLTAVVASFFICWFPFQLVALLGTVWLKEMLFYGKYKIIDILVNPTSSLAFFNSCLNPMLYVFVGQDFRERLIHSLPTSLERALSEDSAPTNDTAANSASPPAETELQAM
Outline: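 Agonist-induced calcium flux was recorded by FLIPR (488/540 nm) in HEK293-hALXR-Gα16 cells pre-loaded with Fluo-4 AM (1 μM, 60 min, 37°C). Peak signal above baseline, after subtracting buffer addition, was expressed relative to WKYMVm at 10 nM final.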

human FPRL2 = molecular target: T2, human FPRL2 (Homo sapiens, UniProt P25089); assay: Intracellular calcium measurements (FLIPR), agonistic activity in HEK293-hFPRL2-Gα16 cells; type: cell-based; settings: Fluo-4 calcium FLIPR, normalized to GLY14-Humanin 100 nM
T2 construct: expressed in transfected cells; host or cells: HEK293 (HEK293-hFPRL2-Gα16)
T2 sequence (P25089 1-353): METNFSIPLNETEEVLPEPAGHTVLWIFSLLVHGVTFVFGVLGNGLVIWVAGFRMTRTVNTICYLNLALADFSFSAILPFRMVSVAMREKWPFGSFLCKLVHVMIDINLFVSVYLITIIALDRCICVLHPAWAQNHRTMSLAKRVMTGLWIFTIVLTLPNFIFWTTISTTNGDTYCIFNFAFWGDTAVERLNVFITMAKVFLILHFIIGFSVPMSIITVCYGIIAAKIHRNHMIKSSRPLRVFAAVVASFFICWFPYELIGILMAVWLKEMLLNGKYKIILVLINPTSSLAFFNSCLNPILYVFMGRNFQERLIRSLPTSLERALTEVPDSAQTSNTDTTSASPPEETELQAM
Outline: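 Peak values after baseline subtraction are expressed relative to 100 nM Gly14-Humanin; compounds diluted in assay buffer from 10 mM DMSO stocks.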

SMILES	EC50 (human ALX receptor) [nM]	EC50 (human FPRL2) [nM]
CC(=O)N1CCN(CCCCNC(=O)[C@H]2[C@H](C(=O)Nc3ccc(Br)cc3)[C@@H]3C=C[C@H]2C32CC2)CC1 [Example 217, (5R)—N^5-(4-Bromophenyl)-(6R)—N^6-(4-(4-acetyl-piperazin-1-yl)butyl)-(4S,7R)-[4,7-ethenylene-spiro[2.4]heptane]-5,6-dicarboxamide]	38	61
O=C(NCCCCN1CCCC1)[C@H]1[C@H](C(=O)Nc2ncc(Br)s2)[C@@H]2CC[C@H]1C21CC1 [Example 238, (5R)—N^5-(5-Bromo-thiazol-2-yl)-(6R)—N^6-(4-pyrrolidin-1-yl-butyl)-(4S,7R)-[4,7-ethylene-spiro[2.4]heptane]-5,6-dicarboxamide]	22	142
NC(=O)CCNC(=O)[C@H]1[C@H](C(=O)NCc2ccc(Br)cc2)[C@@H]2C=C[C@H]1C21CC1 [Example 241, (5R)—N^5-(4-Bromo-phenyl-methyl)-(6R)—N^6-(3-amino-3-oxopropyl)-(4S,7R)-[4,7-ethenylene-spiro[2.4]heptane]-5,6-dicarboxamide]	240	> 25000
Cc1ccc(NC(=O)C2C(C(=O)NCCCCN3CCCC3)C3C=CC2C32CC2)cn1 (stereo not drawn) [Example 253, (5R*)—N^5-(2-Methyl-pyridin-5-yl)-(6R*)—N^6-(4-pyrrolidin-1-yl-butyl)-(4S*,7R*)-[4,7-ethenylene-spiro[2.4]heptane]-5,6-dicarboxamide]	131	1770
CCN(CC)CCCCNC(=O)C1C(C(=O)NCc2ccc(Br)cc2)C2C=CC1C21CC1 (stereo not drawn) [Example 272, (5R*)—N^5-(4-Bromophenyl-methyl)-(6R*)—N^6-(4-diethylamino-butyl)-(4S*,7R*)-[4,7-ethenylene-spiro[2.4]heptane]-5,6-dicarboxamide]	121	299
NC(=O)CCNC(=O)[C@H]1[C@H](C(=O)Nc2ccc(Br)cn2)[C@@H]2C=C[C@H]1C21CC1 [Example 280, (5R)—N^5-(5-Bromopyrid-2-yl)-(6R)—N^6-(3-amino-3-oxopropyl)-(4S,7R)-[4,7-ethenylene-spiro[2.4]heptane]-5,6-dicarboxamide]	258	> 25000
NC(=O)CCNC(=O)[C@H]1[C@H](C(=O)Nc2ccc(Cl)nc2)[C@@H]2C=C[C@H]1C21CC1 [Example 281, (5R)—N^5-(2-Chloropyrid-5-yl)-(6R)—N^6-(3-amino-3-oxopropyl)-(4S,7R)-[4,7-ethenylene-spiro[2.4]heptane]-5,6-dicarboxamide]	31	> 25000
NC(=O)CCNC(=O)[C@H]1[C@H](C(=O)NCc2ccc(Br)cc2F)[C@@H]2C=C[C@H]1C21CC1 [Example 282, (5R)—N^5-(4-Bromo-2-fluorophenyl-methyl)-(6R)—N^6-(3-amino-3-oxopropyl)-(4S,7R)-[4,7-ethenylene-spiro[2.4]heptane]-5,6-dicarboxamide]	146	> 25000
NC(=O)CCNC(=O)[C@H]1[C@H](C(=O)NCc2cnc(Br)s2)[C@@H]2C=C[C@H]1C21CC1 [Example 283, (5R)—N^5-(2-Bromothiazol-5-yl-methyl)-(6R)—N^6-(3-amino-3-oxopropyl)-(4S,7R)-[4,7-ethenylene-spiro[2.4]heptane]-5,6-dicarboxamide]	884	> 25000
O=C(NCCCCN1CCCC1)[C@H]1[C@H](C(=O)NCc2ccc(Br)cc2)[C@@H]2C=C[C@H]1C21CC1 [Example 286, (5R)—N^5-(4-Bromophenyl-methyl)-(6R)—N^6-(4-pyrrolidino-butyl)-(4S,7R)-[4,7-ethenylene-spiro[2.4]heptane]-5,6-dicarboxamide]	32	32

Compounds with a lower EC50 (human ALX receptor), results first:

EC50 (human ALX receptor) [nM]	EC50 (human FPRL2) [nM]	SMILES
15	> 25000	NC(=O)CCNC(=O)[C@H]1[C@H](C(=O)Nc2ncc(Br)s2)[C@@H]2CC[C@H]1C21CC1 [Example 239, (5R)—N^5-(5-Bromo-thiazol-2-yl)-(6R)—N^6-(3-amino-3-oxopropyl)-(4S,7R)-[4,7-ethylene-spiro[2.4]heptane]-5,6-dicarboxamide]
13	264	O=C(NCCCCN1CCCC1)[C@H]1[C@H](C(=O)NCc2ccc(Br)cc2F)[C@@H]2C=C[C@H]1C21CC1 [Example 284, (5R)—N^5-(4-Bromo-2-fluorophenyl-methyl)-(6R)—N^6-(4-pyrrolidino-butyl)-(4S,7R)-[4,7-ethenylene-spiro[2.4]heptane]-5,6-dicarboxamide]
9	224	COc1ccc(NC(=O)[C@H]2[C@H](C(=O)NCCCCN3CCCC3)[C@H]3C=C[C@@H]2C32CC2)cc1 [Example 285, (5R)—N^5-(4-Methoxyphenyl)-(6R)—N^6-(4-pyrrolidino-butyl)-(4S,7R)-[4,7-ethenylene-spiro[2.4]heptane]-5,6-dicarboxamide]
8.1	> 25000	NC(=O)CCNC(=O)[C@H]1[C@H](C(=O)Nc2ncc(Br)s2)[C@@H]2C=C[C@H]1C21CC1 [Example 240, (5R)—N^5-(5-Bromo-thiazol-2-yl)-(6R)—N^6-(3-amino-3-oxopropyl)-(4S,7R)-[4,7-ethenylene-spiro[2.4]heptane]-5,6-dicarboxamide]
7.9	> 25000	NC(=O)CCNC(=O)[C@H]1[C@H](C(=O)Nc2ccc(Br)nc2)[C@@H]2CC[C@H]1C21CC1 [Example 278, (5R)—N^5-(2-Bromopyrid-5-yl)-(6R)—N^6-(3-amino-3-oxopropyl)-(4S,7R)-[4,7-ethylene-spiro[2.4]heptane]-5,6-dicarboxamide]
6.4	143	O=C(NCCCCN1CCCC1)[C@H]1[C@H](C(=O)Nc2ncc(Br)s2)[C@@H]2C=C[C@H]1C21CC1 [Example 225, (5R)—N^5-(5-Bromo-thiazol-2-yl)-(6R)—N^6-(4-pyrrolidin-1-yl-butyl)-(4S,7R)-[4,7-ethenylene-spiro[2.4]heptane]-5,6-dicarboxamide]
5.9	6140	NC(=O)CCNC(=O)[C@H]1[C@H](C(=O)Nc2ccc(Br)nc2)[C@@H]2C=C[C@H]1C21CC1 [Example 242, (5R)—N^5-(2-Bromo-pyrid-5-yl)-(6R)—N^6-(3-amino-3-oxopropyl)-(4S,7R)-[4,7-ethenylene-spiro[2.4]heptane]-5,6-dicarboxamide]
3.9	8240	CC(C)CNC(=O)C1C(C(=O)Nc2ncc(Br)s2)C2C=CC1C21CC1 (stereo not drawn) [Example 245, (5R*)—N^5-(5-Bromo-thiazol-2-yl)-(6R*)—N^6-(isobutyl)-(4S*,7R*)-[4,7-ethenylene-spiro[2.4]heptane]-5,6-dicarboxamide]
1.3	62	O=C(NCCCCN1CCCC1)[C@H]1[C@H](C(=O)Nc2ccc(Br)nc2)[C@@H]2CC[C@H]1C21CC1 [Example 279, (5R)—N^5-(2-Bromopyrid-5-yl)-(6R)—N^6-(4-pyrrolidino-butyl)-(4S,7R)-[4,7-ethylene-spiro[2.4]heptane]-5,6-dicarboxamide]
1.1	173	O=C(NCCCCN1CCCC1)[C@H]1[C@H](C(=O)Nc2ccc(Br)nc2)[C@@H]2C=C[C@H]1C21CC1 [Example 258, (5R)—N^5-(2-Bromo-pyridin-5-yl)-(6R)—N^6-(4-pyrrolidin-1-yl-butyl)-(4S,7R)-[4,7-ethenylene-spiro[2.4]heptane]-5,6-dicarboxamide]
0.66	41	O=C(NCCCCCN1CCCC1)[C@H]1[C@H](C(=O)Nc2ccc(Br)cc2)[C@@H]2C=C[C@H]1C21CC1 [Example 221, (5R)—N^5-(4-Bromophenyl)-(6R)—N^6-(5-pyrrolidino-pentyl)-(4S,7R)-[4,7-ethenylene-spiro[2.4]heptane]-5,6-dicarboxamide]
0.35	235	O=C(NCCCCN1CC[C@H](F)C1)[C@H]1[C@H](C(=O)Nc2ccc(Br)cc2)[C@@H]2C=C[C@H]1C21CC1 [Example 220, (5R)—N^5-(4-Bromophenyl)-(6R)—N^6-(4-((3S)-fluoropyrrolidino)butyl)-(4S,7R)-[4,7-ethenylene-spiro[2.4]heptane]-5,6-dicarboxamide]
0.3	174	O=C(NCCCCN1CC[C@@H](F)C1)[C@H]1[C@H](C(=O)Nc2ccc(Br)cc2)[C@@H]2C=C[C@H]1C21CC1 [Example 219, (5R)—N^5-(4-Bromophenyl)-(6R)—N^6-(4((3R)-fluoropyrrolidino)butyl)-(4S,7R)-[4,7-ethenylene-spiro[2.4]heptane]-5,6-dicarboxamide]
